In the assay the target is T1, Tryp-N (Thermochaetoides thermophila, UniProt G0SEK4).
T1 sequence (G0SEK4 68-292): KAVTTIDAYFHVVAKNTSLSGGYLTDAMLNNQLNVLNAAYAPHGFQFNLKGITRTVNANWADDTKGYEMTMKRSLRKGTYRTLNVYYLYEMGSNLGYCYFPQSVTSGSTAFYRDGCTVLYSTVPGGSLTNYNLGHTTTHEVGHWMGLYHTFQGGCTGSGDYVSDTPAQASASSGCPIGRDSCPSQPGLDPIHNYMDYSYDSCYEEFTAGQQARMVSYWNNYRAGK
As to the kind of experiment: protease activity assay, probably FITC-labeled casein. It counts as biochemical.

Each structure is given as a SMILES string.

Take `N=C(N)c1ccccc1` [benzamidine]: the IC50 (as a rule, the point on the concentration scale where inhibition reaches its midpoint) was around 500 µM.

The values are drawn from publication PMC7842235 (Journal of proteome research, 2020).
